This note sets out measurements from PubChem BioAssay (NCI).

Among the test systems are SK-OV-3 ovarian; MALME-3M melanoma; UO-31 renal; SK-MEL-5 melanoma; HOP-92 NSCLC; A549 NSCLC; SN12C renal; NCI-H522 lung; RPMI-8226 leukemia; SW-620 colon.
Assay in all cases: DTP human tumour cell line panel, 48 h

SMILES strings stand for the structures. Where “and” joins values, the source holds several entries; their conditions need not be identical. Equal entries are not always repeated.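 Values below derive from 48-hour exposures of cells grown in 96-well plates, with endpoints linearly interpolated between the two concentrations bracketing the appropriate inhibition level. Here, GI50 denotes the concentration required for 50% inhibition of growth. The concentration for full growth arrest is given as TGI.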

A word on the TGI: it is the concentration giving total growth inhibition. For `O=C(N[C@@H]1C=CCC[C@@H]1c1ccccc1)OCc1ccccc1`, the TGI in the assay with SK-OV-3 ovarian is over 100 µM; in the assay with MALME-3M melanoma, 37 µM; in the assay with UO-31 renal it was 36.7 µM; in the assay on SK-MEL-5 melanoma it was 33.3 µM; in the assay with HOP-92 NSCLC it was 32.1 µM; with A549 NSCLC, over 69.6 µM. For the same molecule, the TGI in the assay on SN12C renal was 31.1 µM; in the assay on NCI-H522 lung, 30.9 µM; in the assay on RPMI-8226 leukemia it was 57.2 µM; in the assay with SW-620 colon, 50.7 µM.

As usually defined, the GI50 is the concentration giving 50% growth inhibition. For the molecule `O=C(C[C@@]1(O)C(=O)Nc2c(Cl)ccc(Cl)c21)c1ccc(C2CC2)cc1`, the GI50 with SK-OV-3 ovarian is 0.613 µM; with MALME-3M melanoma, 0.542 µM; in the assay on UO-31 renal, 0.585 µM; in the assay on SK-MEL-5 melanoma it was 0.355 µM; in the assay with HOP-92 NSCLC, 1.46 µM; in the assay on A549 NSCLC it was 0.729 µM. Also, the GI50 was 0.88 µM in the assay on SN12C renal, 0.0682 µM with NCI-H522 lung, 0.433 µM with RPMI-8226 leukemia and 0.19 µM with SW-620 colon. Further, the TGI was found to be 39.1 µM in the assay with SK-OV-3 ovarian; 23.9 µM with MALME-3M melanoma; 18.5 µM in the assay on UO-31 renal; 11.6 µM in the assay on SK-MEL-5 melanoma; 19.7 µM in the assay on HOP-92 NSCLC; 24 µM in the assay on A549 NSCLC. For the same molecule, the TGI is 17.7 µM with SN12C renal, 14.1 µM with NCI-H522 lung, 21.4 µM in the assay with RPMI-8226 leukemia and 16.5 µM in the assay with SW-620 colon.

`S=c1nc[nH]c2nc[nH]c12`: the GI50 in the assay on SK-OV-3 ovarian is 0.629 µM and 5.06 µM; in the assay on MALME-3M melanoma it was 5.28 µM; in the assay with UO-31 renal, 4.1 µM and 5.55 µM; with SK-MEL-5 melanoma, 5.4 µM and 46.1 µM; in the assay with HOP-92 NSCLC it was 0.578 µM; with A549 NSCLC, 65.9 µM. In addition, the GI50 in the assay with NCI-H522 lung is 5.3 µM and 8.69 µM; in the assay on RPMI-8226 leukemia, 1.18 µM and 10.3 µM; in the assay with SW-620 colon it was 3.97 µM and 15.1 µM. The TGI with SK-OV-3 ovarian was > 100 µM and 448 µM and > 750 µM; in the assay with MALME-3M melanoma, > 100 µM and 298 µM and > 750 µM; in the assay on UO-31 renal, > 100 µM and 619 µM; in the assay on SK-MEL-5 melanoma, 62.2 µM and 285 µM and > 430 µM; with HOP-92 NSCLC, 82.2 µM and 285 µM; with A549 NSCLC it was > 100 µM and 714 µM and > 750 µM. Also, the concentration for total growth inhibition (TGI) in the assay with SN12C renal was > 100 µM and 680 µM and > 750 µM; in the assay on NCI-H522 lung, > 100 µM and 302 µM and > 750 µM; with RPMI-8226 leukemia it was > 100 µM and 489 µM and 171 µM; in the assay on SW-620 colon, > 100 µM and 692 µM and > 750 µM.

On to `CN(C)c1ccc(/C=C/c2ccnc3ccc4ccccc4c23)cc1`, for which the TGI in the assay with SK-OV-3 ovarian is over 100 µM; in the assay on MALME-3M melanoma it was 58.5 µM; in the assay with UO-31 renal it was over 100 µM; with SK-MEL-5 melanoma, over 100 µM; in the assay with HOP-92 NSCLC it was over 100 µM; in the assay with A549 NSCLC, over 100 µM. Moreover, the concentration for total growth inhibition (TGI) in the assay on SN12C renal, in the assay on NCI-H522 lung, in the assay with RPMI-8226 leukemia and in the assay on SW-620 colon was over 100 µM each time.

Regarding `Cc1cc(Nc2cc(CN3CCOCC3)c3nc(C)c(Cc4ccc(Cl)cc4F)n3n2)n[nH]1`, the GI50 in the assay on SK-OV-3 ovarian was 2.02 µM; with MALME-3M melanoma, 4.35 µM; in the assay with UO-31 renal it was 1.41 µM; in the assay with SK-MEL-5 melanoma, 2.27 µM; in the assay on HOP-92 NSCLC, 1.65 µM; with A549 NSCLC, 0.919 µM. Besides, the GI50 with SN12C renal is 1.14 µM; in the assay on NCI-H522 lung it was 0.566 µM; in the assay with RPMI-8226 leukemia, 1.88 µM; in the assay with SW-620 colon, 1.07 µM. Also, the TGI with SK-OV-3 ovarian is 6.38 µM; with MALME-3M melanoma, 20.6 µM; with UO-31 renal, 2.97 µM; in the assay on SK-MEL-5 melanoma it was 8.72 µM; with HOP-92 NSCLC, 5.01 µM; with A549 NSCLC it was 6.16 µM. The concentration for total growth inhibition (TGI) in the assay with SN12C renal stood at 15.9 µM; in the assay on NCI-H522 lung, 2.02 µM; in the assay on RPMI-8226 leukemia it was 14.8 µM; in the assay with SW-620 colon, 14.3 µM.

For the molecule `Cc1ccc(Nc2[nH]c(C(=O)c3ccc(Cl)cc3)c(N)c2C(=S)Nc2ccccc2)nc1`, the GI50 with SK-OV-3 ovarian is 52.3 µM; in the assay with MALME-3M melanoma it was 13.7 µM; with UO-31 renal, 24.3 µM; with SK-MEL-5 melanoma, 14 µM; in the assay on HOP-92 NSCLC, 29.5 µM; in the assay on A549 NSCLC, 37.7 µM. In addition, the GI50 was 18.5 µM in the assay on SN12C renal, 24 µM with NCI-H522 lung, 25.5 µM in the assay on RPMI-8226 leukemia and 32.7 µM in the assay with SW-620 colon. Also, the TGI with SK-OV-3 ovarian is over 100 µM; in the assay on MALME-3M melanoma, 42 µM; in the assay on UO-31 renal, 86.1 µM; in the assay with SK-MEL-5 melanoma it was 33.7 µM; in the assay with HOP-92 NSCLC, over 100 µM; in the assay with A549 NSCLC, over 100 µM. Besides, the TGI with SN12C renal was 37.9 µM; in the assay on NCI-H522 lung it was 73.2 µM; with RPMI-8226 leukemia it was over 100 µM; with SW-620 colon, over 100 µM.

On to `COc1ccc2[nH]c(-c3ccccc3)c(C=C(C#N)C#N)c2c1`, for which the GI50 with SK-OV-3 ovarian was 4.82 µM; with MALME-3M melanoma, 4.41 µM; with UO-31 renal, 6.43 µM; in the assay on SK-MEL-5 melanoma it was 2.87 µM; with HOP-92 NSCLC it was 2.4 µM; in the assay on A549 NSCLC, 6.97 µM. Moreover, the GI50 is 4.67 µM with SN12C renal, 4.57 µM in the assay with NCI-H522 lung, 2.62 µM in the assay with RPMI-8226 leukemia and 3.62 µM with SW-620 colon. Further, the TGI in the assay on SK-OV-3 ovarian was 35.8 µM; in the assay on MALME-3M melanoma, over 100 µM; with UO-31 renal, over 100 µM; with SK-MEL-5 melanoma, over 100 µM; in the assay on HOP-92 NSCLC, 36.4 µM; in the assay with A549 NSCLC it was over 100 µM. For the same molecule, the total growth inhibition concentration (TGI) with SN12C renal was over 100 µM; in the assay on NCI-H522 lung, over 100 µM; in the assay with RPMI-8226 leukemia, 20.3 µM; with SW-620 colon it was over 100 µM.

Consider `CCOC(=O)/C(=C/c1ccccc1)C(=O)c1ccccc1`, for which the GI50 was 14.4 µM in the assay on SK-OV-3 ovarian; 2.94 µM in the assay on MALME-3M melanoma; 1.76 µM in the assay with UO-31 renal; 2.91 µM in the assay on SK-MEL-5 melanoma; 3.92 µM with HOP-92 NSCLC; 4.4 µM in the assay with A549 NSCLC. Also, the GI50 in the assay with SN12C renal was 3.21 µM; in the assay on NCI-H522 lung, 2.14 µM; in the assay on RPMI-8226 leukemia it was 2.25 µM; with SW-620 colon, 2.77 µM. In addition, the TGI was found to be 27.9 µM in the assay with SK-OV-3 ovarian; 9.09 µM with MALME-3M melanoma; 3.55 µM with UO-31 renal; 9.35 µM in the assay on SK-MEL-5 melanoma; 21.8 µM in the assay on HOP-92 NSCLC; 19.9 µM with A549 NSCLC. For the same molecule, the TGI in the assay with SN12C renal was 12 µM; in the assay with NCI-H522 lung, 4.5 µM; in the assay with RPMI-8226 leukemia, 5.98 µM; in the assay with SW-620 colon, 7.6 µM.
